Results from article PMC4582037, “Binding interaction of a novel fluorophore with serum albumins: steady state fluorescence perturbation and molecular modeling analysis” (SpringerPlus, 2015).

Assays:
[1] = molecular target: T1, human serum albumin (HSA) (Homo sapiens, UniProt P02768); assay: fluorescence anisotropy titration of compound […]) with protein, Langmuir isotherm fit; format: binding
T1 construct: gene ALB

[2] = molecular target: T2, bovine serum albumin (BSA) (Bos taurus, UniProt P02769); assay: as above; format: binding
T2 construct: gene ALB
T2 sequence (P02769 25-607): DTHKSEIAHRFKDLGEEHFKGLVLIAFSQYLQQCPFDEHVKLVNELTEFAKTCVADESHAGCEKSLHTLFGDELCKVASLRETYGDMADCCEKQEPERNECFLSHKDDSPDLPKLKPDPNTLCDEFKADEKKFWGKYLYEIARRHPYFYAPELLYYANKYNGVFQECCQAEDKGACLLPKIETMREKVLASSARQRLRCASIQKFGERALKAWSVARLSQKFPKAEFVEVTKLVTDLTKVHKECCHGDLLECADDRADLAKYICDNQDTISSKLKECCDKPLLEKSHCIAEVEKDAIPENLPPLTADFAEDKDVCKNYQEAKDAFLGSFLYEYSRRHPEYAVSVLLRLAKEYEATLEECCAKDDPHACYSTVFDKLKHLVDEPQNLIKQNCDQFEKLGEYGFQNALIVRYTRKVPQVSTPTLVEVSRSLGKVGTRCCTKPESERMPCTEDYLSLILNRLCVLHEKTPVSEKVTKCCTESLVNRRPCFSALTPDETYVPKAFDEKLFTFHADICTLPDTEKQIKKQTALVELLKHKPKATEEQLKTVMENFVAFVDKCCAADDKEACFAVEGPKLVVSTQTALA

T1 sequence (P02768 25-609): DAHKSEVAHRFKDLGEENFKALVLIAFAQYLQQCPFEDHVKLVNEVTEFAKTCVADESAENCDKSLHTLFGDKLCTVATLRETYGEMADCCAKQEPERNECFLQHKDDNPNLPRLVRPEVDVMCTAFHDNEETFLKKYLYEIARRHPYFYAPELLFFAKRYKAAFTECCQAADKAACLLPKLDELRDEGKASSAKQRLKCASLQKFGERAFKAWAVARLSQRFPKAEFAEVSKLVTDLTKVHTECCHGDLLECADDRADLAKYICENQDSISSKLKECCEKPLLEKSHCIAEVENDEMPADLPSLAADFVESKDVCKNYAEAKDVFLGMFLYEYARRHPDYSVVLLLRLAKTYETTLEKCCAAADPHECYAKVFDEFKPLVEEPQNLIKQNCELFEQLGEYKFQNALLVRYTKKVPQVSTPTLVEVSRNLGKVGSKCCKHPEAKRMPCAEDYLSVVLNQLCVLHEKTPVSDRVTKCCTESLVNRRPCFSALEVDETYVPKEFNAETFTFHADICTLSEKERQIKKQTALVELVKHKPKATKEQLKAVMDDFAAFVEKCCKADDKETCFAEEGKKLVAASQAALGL

COC(=O)CCNC(=O)c1ccc2cc(N(CC(=O)OC(C)(C)C)c3ccc(OC)cc3)ccc2c1 [compound 5, methyl 3-[(6-{[2-(tert-butoxy)-2-oxoethyl] (4-methoxyphenyl)amino}naphthalen-2-yl)formamido]propanoate]
Kd [1]: 2.05 µM | Kd [2]: 1.93 µM
